Measured values as given in PubChem BioAssay AID316 (DTP/NCI, 2004).
Toxic doses and inconclusive results are not listed.

Tested on: P1534 leukemia ip, CD2F1 mice, survival T/C
Experiment: NCI In Vivo Anticancer Drug Screen. Data for tumor model P1534 Leukemia (intraperitoneal) in CD2F1 (CDF1) mice
Settings: endpoint: mean survival time, vehicle: saline, higher = longer survival
Procedure: The antitumor activity of compounds was measured in mice bearing transplantable tumors. Survival or tumor size were measured and the results are expressed as the measurement made in the treated group (T) divided by the measurement made in the vehicle treated control group (C). The tumor model used in this assay is P1534 Leukemia (intraperitoneal) in CD2F1 (CDF1) mice

COc1cc2c(c(OC)c1OC)-c1ccc(OC)c(=O)cc1[C@@H](NC(C)=O)CC2
T/C (dose: 0.04 mg/kg/injection, schedule: Q01DX010 (ip)): 100 % of control | T/C (dose: 0.05 mg/kg/injection, schedule: Q01DX010 (ip)): 123 % of control | T/C (dose: 0.06 mg/kg/injection, schedule: Q01DX010 (ip)): 100 % of control | T/C (dose: 0.12 mg/kg/injection, schedule: Q01DX010 (ip)): 188 % of control | T/C (dose: 0.18 mg/kg/injection, schedule: Q01DX010 (ip)): 213 % of control | T/C (dose: 0.2 mg/kg/injection, schedule: Q01DX015 (ip)): 161 % of control | T/C (dose: 0.2 mg/kg/injection, schedule: Q02DX008 (ip)): 174 % of control | T/C (dose: 0.27 mg/kg/injection, schedule: Q01DX010 (ip)): 253 % of control | T/C (dose: 0.3 mg/kg/injection, schedule: Q01DX015 (ip)): 212 % of control | T/C (dose: 0.3 mg/kg/injection, schedule: Q02DX008 (ip)): 159 % of control | T/C (dose: 0.45 mg/kg/injection, schedule: Q01DX015 (ip)): 257 % of control | T/C (dose: 0.45 mg/kg/injection, schedule: Q02DX008 (ip)): 261 % of control | T/C (dose: 0.67 mg/kg/injection, schedule: Q02DX008 (ip)): 318 % of control | T/C (dose: 0.9 mg/kg/injection, schedule: Q## X004 (ip)): 348 % of control | T/C (dose: 1.0 mg/kg/injection, schedule: Q02DX008 (ip)): 304 % of control | T/C (dose: 1.0 mg/kg/injection, schedule: Q## X032 (ip)): 242 % of control | T/C (dose: 1.1 mg/kg/injection, schedule: Q01DX001 (ip)): 255 % of control | T/C (dose: 1.3 mg/kg/injection, schedule: Q## X004 (ip)): 328 % of control | T/C (dose: 1.6 mg/kg/injection, schedule: Q## X032 (ip)): 352 % of control | T/C (dose: 1.7 mg/kg/injection, schedule: Q01DX001 (ip)): 208 % of control | T/C (dose: 2.4 mg/kg/injection, schedule: Q## X032 (ip)): 240 % of control | T/C (dose: 2.5 mg/kg/injection, schedule: Q01DX001 (ip)): 241 % of control
